Broadly, the Ki is a dissociation constant, usually derived from enzyme kinetics or from competition with a known ligand. For orientation: melting point means the temperature of the solid-liquid transition. As a reminder, the pKi is the negative decadic logarithm of the Ki, by convention in mol/L. Read a high pKi as a small Ki.

Data set [1] addresses T1, rat VR1 (Rattus norvegicus, UniProt O35433).
T1 construct: expressed in transfected cells
Put plainly: [3H]resiniferatoxin (RTX) competition binding assay, VR1-transfected CHO cells. Particulars: for Ki: competition with [3H]RTX, rat VR1 in CHO cells, read-out: Ki (nM) Binding Affinity. In outline:
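Competition with [3H]RTX (50-100 pM) ran 60 min at 37° C using whole VR1-induced CHO cells in BSA-containing DPBS, nonspecific defined by 100 nM cold RTX. After centrifugation, pellet radioactivity counted by scintillation; Hill fits gave Ki and cooperativity.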

Data set [2] concerns the target T1, rat VR1. The experiment in a line: 45Ca2+-uptake assay in CHO/VR1 cells, antagonism of capsaicin-stimulated uptake. The class given is cell-based. Particulars: 45Ca2+ uptake stimulated by 50 nM capsaicin.

pKi: −log10 of the molar value.

T1 sequence (O35433 whole entry): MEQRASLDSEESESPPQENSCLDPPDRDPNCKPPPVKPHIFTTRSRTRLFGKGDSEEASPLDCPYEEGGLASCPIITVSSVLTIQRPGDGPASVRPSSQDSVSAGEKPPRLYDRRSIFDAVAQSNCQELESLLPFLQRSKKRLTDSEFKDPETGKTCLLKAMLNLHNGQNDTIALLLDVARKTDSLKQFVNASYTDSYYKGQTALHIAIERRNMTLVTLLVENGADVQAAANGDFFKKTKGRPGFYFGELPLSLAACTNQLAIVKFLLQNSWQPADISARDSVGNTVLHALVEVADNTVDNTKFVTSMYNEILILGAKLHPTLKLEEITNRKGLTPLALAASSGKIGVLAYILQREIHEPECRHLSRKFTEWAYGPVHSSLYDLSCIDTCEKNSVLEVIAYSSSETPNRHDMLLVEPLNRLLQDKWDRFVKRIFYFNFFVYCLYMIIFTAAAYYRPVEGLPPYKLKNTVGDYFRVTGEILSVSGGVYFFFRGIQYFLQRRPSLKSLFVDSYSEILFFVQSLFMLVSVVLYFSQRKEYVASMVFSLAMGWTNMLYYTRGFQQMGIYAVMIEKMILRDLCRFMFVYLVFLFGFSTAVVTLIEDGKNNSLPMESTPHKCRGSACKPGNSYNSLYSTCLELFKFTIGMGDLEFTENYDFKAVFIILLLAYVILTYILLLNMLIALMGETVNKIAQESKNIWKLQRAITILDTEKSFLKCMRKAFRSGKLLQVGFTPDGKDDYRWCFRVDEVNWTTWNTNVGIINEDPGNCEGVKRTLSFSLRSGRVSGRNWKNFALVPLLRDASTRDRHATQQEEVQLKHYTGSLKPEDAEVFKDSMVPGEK

Take `C[C@H](C(=O)NC[C@H](COC(=O)C(C)(C)C)Cc1ccc(C(C)(C)C)cc1)c1ccc(NS(C)(=O)=O)c(Cl)c1` [6-13, N-[(2R)-2-(4-t-Butylbenzyl)-3-(pivaloyloxy)propyl]-(2S)-2-[3-chloro-4-(methylsulfonylamino)phenyl]propionamide]: the melting point lay in the range of 61 to 63 °C. The Ki on rat VR1 [1] was found to be 1.83 nM. On rat VR1 [2], this compound returned a Ki of 5.23 nM.

Compound `CC(C)c1ccc(CNC(=O)C(C)c2ccc(NS(C)(=O)=O)c(F)c2)cc1` (stereo not drawn) [4-8, N-(4-Isopropylbenzyl)-2-[3-fluoro-4-(methylsulfonylamino)phenyl]propionamide] returned a melting point of 137 to 139 °C. Also, the Ki on rat VR1 [1] amounted to 127 nM. The affinity at rat VR1 [2], expressed as Ki, was 143 nM.

In turn, `Cc1ccc(CC(CNC(=O)C2(c3ccc(NS(C)(=O)=O)cc3)CC2)COC(=O)C(C)(C)C)cc1C` (stereo not drawn) [12-1, N-[2-(3,4-Dimethylbenzyl)-3-pivaloyloxypropyl]-1-[4-(methylsulfonylamino)phenyl]cyclopropanecarboxamide] had a melting point of 54 to 56 °C. Further, at rat VR1 [1], the Ki was determined as 396 nM. The compound further yielded a Ki on rat VR1 [2] of 197 nM.

As for `COc1cc(C(C)NC(=S)NCc2ccc(C(C)(C)C)cc2)ccc1NS(C)(=O)=O` (stereo not drawn) [15-3, N-(4-t-Butylbenzyl)-N′-{1-[3-methoxy-4-(methylsulfonylamino)phenyl]ethyl}thiourea], the melting point was 80 to 82 °C. The Ki at rat VR1 [1] is 66.5 nM. For the same compound, on rat VR1 [2], affinity was put at a Ki of 28.6 nM.

In turn, `CC(NC(=O)NCc1ccc(C(C)(C)C)cc1)c1ccc(NS(C)(=O)=O)c(F)c1` (stereo not drawn) [23-2, N-(4-t-Butylbenzyl)-N′-{1-[3-fluoro-4-(methylsulfonylamino)phenyl]ethyl}urea] gave a melting point of 152 to 154 °C. On rat VR1 [1], this compound had a negative-log Ki (pKi) of 6.35. The compound also had a Ki on rat VR1 [2] of 298 nM.

The compound `CC(C)(C)c1ccc(CNC(=O)C2(c3ccc(NS(C)(=O)=O)cc3)CC2)cc1` [12-7, N-(4-tert-Butylbenzyl)-1-[4-(methylsulfonylamino)phenyl]cyclopropanecarboxamide] gave a melting point of 200 to 203 °C. In addition, on rat VR1 [1], the Ki was determined as 608 nM. For the same compound, the Ki on rat VR1 [2] was determined as 1760 nM.

Turning to `Cc1ccc(CC(CNC(=S)NC(C)c2ccc(NS(C)(=O)=O)cc2)COC(=O)C(C)(C)C)cc1C` (stereo not drawn) [18-5, N-[2-(3,4-Dimethylbenzyl)-3-(pivaloyloxy)propyl]-N′-{1-[4-(methylsulfonylamino)phenyl]ethyl}thiourea], the melting point worked out at 77 °C. On rat VR1 [1], this compound showed a pKi of 7.43. In addition, at rat VR1 [2], the affinity, expressed as Ki, was 25.9 nM.

For `Cc1ccc(CC(CNC(=O)C(C)c2ccc(NS(C)(=O)=O)c(Cl)c2)COC(=O)C(C)(C)C)cc1C` (stereo not drawn) [5-7, N-[2-(3,4-Dimethylbenzyl)-3-pivaloyloxypropyl]-2-[3-chloro-4-(methylsulfonylamino)phenyl]propionamide], the melting point lay in the range of 127 to 129 °C. The Ki at rat VR1 [1] stood at 11.3 nM. In addition, the inhibition constant Ki on rat VR1 [2] was determined as 35.7 nM.

`CC(C)(C)c1ccc(CNC(=S)NC(C)(C)c2ccc(NS(C)(=O)=O)c(F)c2)cc1` [21-8, N-(4-t-Butylbenzyl)-N′-{1-methyl-1-[3-fluoro-4-(methylsulfonylamino)phenyl]ethyl}thiourea] had a melting point of 83 to 85 °C. The Ki on rat VR1 [1] is 7740 nM. The compound also displayed a Ki on rat VR1 [2] of 983 nM.

`Cc1ccc(CC(CNC(=O)C(C)(C)c2ccc(NS(C)(=O)=O)cc2)COC(=O)C(C)(C)C)cc1C` (stereo not drawn) [9-1, N-[2-(3,4-Dimethylbenzyl)-3-pivaloyloxypropyl]-2-[4-(methylsulfonylamino)phenyl]-2-methylpropionamide] yielded a melting point of 126 to 130 °C. In addition, the Ki at rat VR1 [1] stood at 372 nM. The same compound displayed a Ki at rat VR1 [2] of 103 nM.

`CC(C(=O)NCc1ccc(C(C)(C)C)cc1)c1ccc(NS(C)(=O)=O)cc1` (stereo not drawn) [2-7, N-(4-tert-Butylbenzyl)-2-[4-(methylsulfonylamino)phenyl]propionamide]: the melting point is 77 to 79 °C. Moreover, the Ki on rat VR1 [1] stood at 105 nM. In addition, the Ki at rat VR1 [2] was determined as 17.5 nM.

For `CC(C(=O)NCc1ccc(C(C)(C)C)cc1)c1ccc(NS(C)(=O)=O)c(F)c1` (stereo not drawn) [1-51, N-(4-tert-Butylbenzyl)-2-[3-fluoro-4-(methylsulfonylamino)phenyl]propionamide], the melting point lay in the range of 52 to 54 °C. This compound had a pKi at rat VR1 [1] of 7.23. This compound had a Ki on rat VR1 [2] of 5.47 nM.

On to `CC(C(=O)NCC(COC(=O)C(C)(C)C)Cc1ccc(C(C)(C)C)cc1)c1ccc(NS(C)(=O)=O)c(F)c1` (stereo not drawn) [5-4, 2-[3-Fluoro-4-(methylsulfonylamino)phenyl]-N-[2-(4-tert-butylbenzyl)-3-pivaloyloxypropyl]propionamide], for which the melting point lay within 113 to 115 °C. Besides, the Ki on rat VR1 [1] was found to be 13.6 nM. The same compound came in with a Ki on rat VR1 [2] of 3.24 nM.

`C[C@@H](C(=O)NC[C@@H](COC(=O)C(C)(C)C)Cc1ccc(C(C)(C)C)cc1)c1ccc(NS(C)(=O)=O)c(F)c1` [6-11, N-[(2S)-2-(4-t-Butylbenzyl)-3-(pivaloyloxy)propyl]-(2R)-2-[3-fluoro-4-(methylsulfonylamino)phenyl]propionamide] displayed a melting point of 44 to 46 °C. Besides, at rat VR1 [1], the Ki stood at 63.8 nM. The affinity at rat VR1 [2] corresponds to a Ki of 142 nM.

For `CC(C(=O)NCC(c1ccccc1)c1ccccc1)c1ccc(NS(C)(=O)=O)c(F)c1` (stereo not drawn) [4-23, N-(2,2-Diphenylethyl)-2-[3-fluoro-4-(methylsulfonylamino)phenyl]propionamide], the melting point was 129 °C. In addition, the Ki on rat VR1 [1] came to 1700 nM. At rat VR1 [2], the affinity corresponds to a Ki of 2490 nM.

With `COc1cc(C2(C(=O)NCCCc3ccc(C)c(C)c3)CC2)ccc1NS(C)(=O)=O` [12-6, N-[3-(3,4-Dimethylphenyl)propyl]-1-[3-methoxy-4-(methylsulfonylamino)phenyl]cyclopropanecarboxamide], the melting point was in the range of 88 to 89 °C. The compound also showed a pKi at rat VR1 [1] of 5.77. Besides, the Ki at rat VR1 [2] is 1240 nM.

In turn, `Cc1ccc(C(=CCNC(=O)C(C)c2ccc(NS(C)(=O)=O)c(F)c2)c2ccc(C)cc2)cc1` (stereo not drawn) [4-26, N-[3,3-Di(4-methylphenyl)-2-propenyl]-2-[3-fluoro-4-(methylsulfonylamino)phenyl]propionamide] yielded a melting point of 163 to 165 °C. In addition, the pKi on rat VR1 [1] was 7.44. The compound further had a Ki at rat VR1 [2] of 8.03 nM.

`CC(C(=O)NCCC(c1ccccc1)c1ccccc1)c1ccc(NS(C)(=O)=O)c(F)c1` (stereo not drawn) [4-24, N-(3,3-Diphenylpropyl)-2-[3-fluoro-4-(methylsulfonylamino)phenyl]propionamide] yielded a melting point of 66 to 68 °C. Also, the pKi at rat VR1 [1] was 6.89. On rat VR1 [2], this compound registered a Ki of 36.6 nM.

`CC(NC(=O)C=Cc1ccc(Cl)cc1)c1ccc(NS(C)(=O)=O)c(F)c1` (stereo not drawn) [24-7, N-{1-[3-Fluoro-4-(methylsulfonylamino)phenyl]ethyl}-3-(4-chlorophenyl)-2-propenamide] had a melting point of 219 to 221 °C. Also, the pKi at rat VR1 [1] was 6.11. The same compound registered a Ki at rat VR1 [2] of 938 nM.

In the case of `Cc1ccc(CCCNC(=O)C(C)(C)c2ccc(NS(C)(=O)=O)c(F)c2)cc1C` [9-5, N-[3-(3,4-Dimethylphenyl)propyl]-2-[3-fluoro-4-(methylsulfonylamino)phenyl]-2-methylpropionamide], the melting point was in the range of 145 to 146 °C. At rat VR1 [1], this compound had a pKi of 6.02. The compound further had an inhibition constant Ki on rat VR1 [2] of 418 nM.

`C[C@@H](NC(=S)NC[C@H](COC(=O)C(C)(C)C)Cc1ccccc1)c1ccc(NS(C)(=O)=O)cc1` [18-1, N-[(2R)-2-Benzyl-3-(pivaloyloxy)propyl]-N′-{(1R)-1-[4-(methylsulfonylamino)phenyl]ethyl}thiourea] showed a melting point of 62 to 64 °C. This compound also showed a pKi on rat VR1 [1] of 7.64. Moreover, on rat VR1 [2], the affinity corresponds to a Ki of 44.5 nM.

Take `C[C@H](NC(=S)NC[C@@H](COC(=O)C(C)(C)C)Cc1ccccc1)c1ccc(NS(C)(=O)=O)cc1` [18-4, N-[(2S)-2-Benzyl-3-(pivaloyloxy)propyl]-N′-{(1S)-1-[4-(methylsulfonylamino)phenyl]ethyl}thiourea]: the melting point was in the range of 62 to 64 °C. The compound further gave a negative logarithm of the Ki (pKi) at rat VR1 [1] of 6.15. In addition, the Ki at rat VR1 [2] came out at 133 nM.

Compound `CC(C(=O)NCc1ccc(Cl)cc1)c1ccc(NS(C)(=O)=O)c(F)c1` (stereo not drawn) [4-1, N-(4-Chlorobenzyl)-2-[3-fluoro-4-(methylsulfonylamino)phenyl]propionamide] showed a melting point of 129 to 130 °C. Moreover, the Ki at rat VR1 [1] worked out at 1060 nM. For the same compound, the Ki at rat VR1 [2] stood at 367 nM.

Take `C[C@H](C(=O)NC[C@H](COC(=O)C(C)(C)C)Cc1ccc(C(C)(C)C)cc1)c1ccc(NS(C)(=O)=O)c(F)c1` [6-9, N-[(2R)-2-(4-t-Butylbenzyl)-3-(pivaloyloxy)propyl]-(2S)-2-[3-fluoro-4-(methylsulfonylamino)phenyl]propionamide]: the melting point fell in the range of 44 to 46 °C. In addition, the pKi at rat VR1 [1] is 8.37. The Ki at rat VR1 [2] turned out to be 0.58 nM.

In turn, `COc1cc(C2(NC(=S)NCc3ccc(C(C)(C)C)cc3)CC2)ccc1NS(C)(=O)=O` [22-9, N-(4-t-Butylbenzyl)-N′-{1-[3-methoxy-4-(methylsulfonylamino)phenyl]cyclopropyl}thiourea] had a melting point of 100 to 103 °C. For the same compound, the Ki on rat VR1 [1] came to 372 nM. In addition, the Ki at rat VR1 [2] came out at 243 nM.

`CC(C)C(NC(=S)NCc1ccc(C(C)(C)C)cc1)c1ccc(NS(C)(=O)=O)c(F)c1` (stereo not drawn) [20-13, N′-(4-t-Butylbenzyl)-N-{1-[4-(methylsulfonylamino)-3-fluorophenyl]-2-methylpropyl}thiourea] came in with a melting point of 84 °C. The Ki on rat VR1 [1] came out at 338 nM. At rat VR1 [2], this compound showed a Ki of 223 nM.

Compound `CC(C(=O)NCc1ccc(C(F)(F)F)cc1)c1ccc(NS(C)(=O)=O)c(F)c1` (stereo not drawn) [4-10, N-(4-Trifluoromethylbenzyl)-2-[3-fluoro-4-(methylsulfonylamino)phenyl]propionamide] gave a melting point of 150 to 152 °C. At rat VR1 [1], the Ki stood at 657 nM. The Ki at rat VR1 [2] worked out at 274 nM.

For the origin of these results see patent US8642657B2 (Gruenenthal GmbH, priority 2003, dated 2014).
